Each structure is given as a SMILES string. Where a name gives a salt, the structure may show the parent alone.

As a reminder, the IC50 is the concentration that inhibits the measured activity by half.

For the test, the system named is IL-6 cytokine output from isolated primary human monocytes. Put plainly: Primary human monocyte AlphaLISA IL-6 cytokine assay. Format: cell-based. Particulars: CD14+ primary human monocytes, LPS 24 hr then Nigericin 1 hour. As for the experimental part: Measuring Inhibitory Effects on IL-1β and IL-6 Cytokine Output from Isolated Primary Human Monocytes
The cytokine inhibition profiles of compounds of formula (IW-1) were determined in a CD14^+ isolated primary human monocyte cell assay. All assays were performed in RPMI-1640 growth medium (Gibco), supplemented with heat-inactivated fetal bovine serum (FBS) and 1% penicillin-streptomycin unless specified otherwise. The IL-1β and IL-6 cytokine inhibition assays were each run in a background of isolated primary human monocyte cells as described below. All reagents described were from Sigma-Aldrich unless specified otherwise. Compounds were prepared as 100 mM DMSO stocks.
Primary peripheral blood mononuclear cells (PBMCs) were isolated from human whole blood. Following PBMC isolation, a CD14^+ monocyte isolation step was conducted whereby CD14^+ magnetic beads (Miltenyi Biotec) were incubated for 15 minutes with the PBMC suspension that was previously treated with ice cold T-cell isolation buffer (PBS, 0.5% BSA, 2 mM EDTA). Following bead incubation, the treated cell suspension was passed through a magnetic separation column designed to positively select for magnetically labelled cells. The isolated CD14^+ monocytes were subsequently plated at the appropriate cell density for the assay, prior to compound treatment on the day of plating. Working concentrations of compounds were prepared separately in RPMI-1640 only growth medium and pre-incubated with the cells for 30 minutes (37° C./5% CO2). Following the 30 minute compound pre-incubation, primary monocytes were treated with an appropriate concentration of LPS and subsequently incubated for a 24 hr period (37° C./5% CO2). An appropriate final concentration of Nigericin was then dispensed into the primary monocyte plates and incubated for 1 hour (37° C./5% CO2) before monocyte supernatants were harvested and collected in separate polypropylene 96-well holding plates prior to commencing the AlphaLISA cytokine assay.
Reagents from each of the IL-1β and IL-6 commercial kits (Perkin Elmer) were prepared and run according to the manufacturer's instructions. Subsequently, fluorescence signal was measured in a microplate reader (EnVision® Multilabel Reader, Perkin Elmer).
Percentage inhibition was calculated per cytokine by normalising the sample data to the high and low controls used within each plate (+/−LPS respectively). Percentage inhibition was then plotted against compound concentration and the 50% inhibitory concentration (IC50) was determined from the resultant concentration-response curve.
`C=C(CC(=O)OCCCCCCCC)C(=O)OCCC#N` [Example 1, 1-(2-cyanoethyl) 4-octyl 2-methylenesuccinate]: the 50% inhibitory concentration (IC50) worked out at 26.9 µM. With `C=C(CC(=O)OCCCCCCCC)C(=O)OCCN1C(=O)CCC1=O` [Example 9, 1-(2-(2,5-dioxopyrrolidin-1-yl)ethyl) 4-octyl 2-methylenesuccinate] the figure was 10.7 µM. Then `C=C(CC(=O)OCCCCCCCC)C(=O)OCCS(C)(=O)=O` [Example 2, 1-(2-(methylsulfonyl)ethyl) 4-octyl 2-methylenesuccinate], with 13.2 µM; and `COC(=O)/C=C/C(=O)OC` [dimethyl fumarate, reference compound], with 15.7 µM.

For the origin of these results see US12390437B2, “Itaconic acid derivatives and uses thereof intreating an inflammatory disease or a disease associated with an undesirable immune response” (Sitryx Therapeutics Limited, priority 2019, dated 2025).
